Measured values taken from PMC4030617 (Biochemistry, 2009).
Converted amounts (≈) assume the structure as drawn. “And” between values parts separate entries of the source, which are not always exact repeats. Equal values may be shown once.

Experiments:
[1] = molecular target: T1, SHV Asn276Asp β-lactamase (Klebsiella pneumoniae, UniProt P0AD64, N270D); assay: Steady-state substrate hydrolysis kinetics, Asn276Asp; assay type: biochemical; settings: for Km: PBS pH 7.4, room temperature
[2] = test system: E. coli DH10B expressing SHV Asn276Gln, -Glu, -Cys; assay: microbe, parasite or virus in culture; assay type: cell-based; settings: Escherichia coli
[3] = test system: E. coli DH10B expressing SHV Asn276Thr; assay: microbe, parasite or virus in culture; assay type: cell-based; settings: Escherichia coli
[4] = test system: E. coli DH10B expressing SHV Asn276Ser; assay: microbe, parasite or virus in culture; assay type: cell-based; settings: Escherichia coli
[5] = test system: E. coli DH10B expressing SHV Asn276Pro, -Trp; assay: microbe, parasite or virus in culture; assay type: cell-based; settings: Escherichia coli
[6] = test system: E. coli DH10B expressing SHV Asn276Lys, -Arg, -Tyr, -Phe; assay: microbe, parasite or virus in culture; assay type: cell-based; settings: Escherichia coli
[7] = test system: E. coli DH10B expressing SHV Asn276Val; assay: microbe, parasite or virus in culture; assay type: cell-based; settings: Escherichia coli
[8] = test system: E. coli DH10B expressing SHV Asn276Ala, -Leu, -Ile; assay: microbe, parasite or virus in culture; assay type: cell-based; settings: Escherichia coli
[9] = test system: E. coli DH10B expressing SHV Asn276Gly; assay: microbe, parasite or virus in culture; assay type: cell-based; settings: Escherichia coli
[10] = test system: E. coli DH10B expressing SHV-1; assay: MIC, agar dilution, strain expressing SHV-1; settings: Escherichia coli
[11] = test system: E. coli DH10B expressing SHV Asn276His; assay: microbe, parasite or virus in culture; assay type: cell-based; settings: Escherichia coli
[12] = test system: E. coli DH10B expressing SHV Asn276Met; assay: microbe, parasite or virus in culture; assay type: cell-based; settings: Escherichia coli
E. coli DH10B = assay: MIC, lysogeny broth agar dilution, host strain; settings: Escherichia coli
[13] = test system: E. coli DH10B expressing SHV Asn276Asp; assay: microbe, parasite or virus in culture; assay type: cell-based; settings: Escherichia coli
[14] = test system: E. coli DH10B expressing SHV Asn276 variants; assay: MIC, agar dilution, all Asn276 variants taken together; settings: for MIC of Asn276 variants compared to SHV-1: all Asn276 variants vs SHV-1, in words
[15] = molecular target: T1, SHV Asn276Asp β-lactamase; assay: Inactivation kinetics; assay type: biochemical; settings: Asn276Asp vs SHV-1
[16] = molecular target: T1, SHV Asn276Asp β-lactamase; assay: Partition ratio; assay type: biochemical; settings: rate of inhibitor hydrolysis, calculated
[17] = molecular target: T1, SHV Asn276Asp β-lactamase; assay: Direct competition assay against nitrocefin; assay type: biochemical; settings: for increase in Ki for Asn276Asp as compared to SHV-1: Asn276Asp vs SHV-1
SHV-1 β-lactamase [18] = molecular target: T2, SHV-1 β-lactamase (Klebsiella pneumoniae, UniProt P0AD64); assay type: biochemical
SHV-1 β-lactamase [19] = molecular target: T2, SHV-1 β-lactamase; assay: biochemical
[20] = test system: CC1(C)S[C@@H]2[C@H](NC(=O)[C@H](N)c3ccccc3)C(=O)N2[C@H]1C(=O)O; assay: purified protein, by the assay type; settings: other: SHV-1, substrate hydrolysis, PBS pH 7.4, room temperature
[21] = test system: O=C(Cc1cccs1)N[C@@H]1C(=O)N2C(C(=O)O)=C(/C=C/c3ccc([N+](=O)[O-])cc3[N+](=O)[O-])CS[C@H]12; assay: purified protein, by the assay type; settings: other: SHV-1, substrate hydrolysis, PBS pH 7.4, room temperature
[22] = test system: CCN1CCN(C(=O)N[C@@H](C(=O)N[C@@H]2C(=O)N3[C@@H]2SC(C)(C)[C@@H]3C(=O)O)c2ccccc2)C(=O)C1=O; assay: purified protein, by the assay type; settings: other: SHV-1, substrate hydrolysis, PBS pH 7.4, room temperature
[23] = test system: CC(=O)OCC1=C(C(=O)O)N2C(=O)[C@@H](NC(=O)Cc3cccs3)[C@H]2SC1; assay: purified protein, by the assay type; settings: other: SHV-1, substrate hydrolysis, PBS pH 7.4, room temperature

Row | Molecule | kcat [1] | Km [1] | MIC [2] | MIC [3] | MIC [4] | MIC [5] | MIC [6] | MIC [7] | MIC [8] | MIC [9] | MIC [10] | MIC [11] | MIC [12] | MIC (E. coli DH10B) | MIC [13] | further results
1 | O=C(Cc1cccs1)N[C@@H]1C(=O)N2C(C(=O)O)=C(/C=C/c3ccc([N+](=O)[O-])cc3[N+](=O)[O-])CS[C@H]12 [Nitrocefin, nitrocefin] | 137 ± 14 s⁻¹ | 28 ± 3 µM |  |  |  |  |  |  |  |  |  |  |  |  |  | 
2 | CC1(C)S[C@@H]2[C@H](NC(=O)[C@H](N)c3ccccc3)C(=O)N2[C@H]1C(=O)O [ampicillin] | 989 ± 99 s⁻¹ | 134 ± 13 µM | 1020 to 2050 mg/L (≈ 2930 to 5860 µM) | 1020 to 2050 mg/L (≈ 2930 to 5860 µM) | 4100 mg/L (≈ 11700 µM) | 8 to 16 mg/L (≈ 22.9 to 45.8 µM) | 64 mg/L (≈ 183 µM) | 2050 mg/L (≈ 5860 µM) | 256 to 512 mg/L (≈ 733 to 1470 µM) | 4100 mg/L (≈ 11700 µM) | > 16400 mg/L | 1020 mg/L (≈ 2930 µM) | 32 mg/L (≈ 91.6 µM) | 1 mg/L (≈ 2.86 µM) | 8190 mg/L (≈ 23400 µM) | 
3 | CO/N=C(\C(=O)N[C@@H]1C(=O)N2C(C(=O)O)=C(COC(C)=O)CS[C@H]12)c1csc(N)n1 [cefotaxime] |  |  |  |  |  |  |  |  |  |  |  |  |  |  |  | MIC of Asn276 variants compared to SHV-1 [14]: comparable to SHV-1
4 | CC(=O)OCC1=C(C(=O)O)N2C(=O)[C@@H](NC(=O)Cc3cccs3)[C@H]2SC1 [cephalothin] | 10 ± 1 s⁻¹ | 83 ± 11 µM | 8 to 16 mg/L (≈ 20.2 to 40.4 µM) | 8 to 16 mg/L (≈ 20.2 to 40.4 µM) | 16 mg/L (≈ 40.4 µM) | 4 to 8 mg/L (≈ 10.1 to 20.2 µM) | 4 to 8 mg/L (≈ 10.1 to 20.2 µM) | 16 mg/L (≈ 40.4 µM) | 4 to 8 mg/L (≈ 10.1 to 20.2 µM) | 16 mg/L (≈ 40.4 µM) | 64 to 128 mg/L (≈ 161 to 323 µM) | 16 mg/L (≈ 40.4 µM) | 4 mg/L (≈ 10.1 µM) | 4 mg/L (≈ 10.1 µM) | 8 to 16 mg/L (≈ 20.2 to 40.4 µM) | MIC, range over the variants at Asn276 ([14]; each of the variants at Asn276): 4 to 16 mg/L
5 | O=C(O)[C@H]1/C(=C/CO)O[C@@H]2CC(=O)N21 [clavulanate] |  |  |  |  |  |  |  |  |  |  |  |  |  |  |  | increase in KI for Asn276Asp as compared to SHV-1 [15]: 1.6 fold; kcat [16]: 0.75 ± 0.18 s⁻¹; increase in Ki for Asn276Asp as compared to SHV-1 [17]: 5 fold and 5.4 fold; kcat (SHV-1 β-lactamase [18]): 0.60 ± 0.17 s⁻¹
6 | C[C@@H](O)[C@H]1C(=O)N2C(C(=O)O)=C(S[C@@H]3CN[C@H](C(=O)N(C)C)C3)[C@H](C)[C@H]12 [meropenem] |  |  |  |  |  |  |  |  |  |  |  |  |  |  |  | MIC of Asn276 variants compared to SHV-1 [14]: comparable to SHV-1; increase in Ki for Asn276Asp as compared to SHV-1 [17]: 46 fold; Ki ([17]; Ki, Asn276Asp, competition with NCF, corrected for NCF affinity): 1411 ± 14 µM; Ki (SHV-1 β-lactamase [19]): 31 ± 3 µM
7 | CCN1CCN(C(=O)N[C@@H](C(=O)N[C@@H]2C(=O)N3[C@@H]2SC(C)(C)[C@@H]3C(=O)O)c2ccccc2)C(=O)C1=O [piperacillin] | 976 ± 98 s⁻¹ | 105 ± 18 µM | 64 to 128 mg/L (≈ 124 to 247 µM) | 128 to 256 mg/L (≈ 247 to 495 µM) | 512 mg/L (≈ 989 µM) | 2 to 4 mg/L (≈ 3.86 to 7.73 µM) | 8 to 16 mg/L (≈ 15.5 to 30.9 µM) | 512 mg/L (≈ 989 µM) | 16 to 32 mg/L (≈ 30.9 to 61.8 µM) | 256 mg/L (≈ 495 µM) | 2050 mg/L (≈ 3960 µM) | 256 mg/L (≈ 495 µM) | 4 mg/L (≈ 7.73 µM) | 1 mg/L (≈ 1.93 µM) | 512 mg/L (≈ 989 µM) | 
8 | SHV-1 β-lactamase (Klebsiella pneumoniae) |  |  |  |  |  |  |  |  |  |  |  |  |  |  |  | Km [20]: 183 ± 34 µM; kcat [20]: 3100 ± 300 s⁻¹; kcat/Km [20]: 1.7e+07 ± 4e+06 M⁻¹ s⁻¹; Km [21]: 21 ± 3 µM; kcat [21]: 237 ± 24 s⁻¹; kcat/Km [21]: 1.1e+07 ± 2e+06 M⁻¹ s⁻¹; Km [22]: 77 ± 7 µM; kcat [22]: 898 ± 90 s⁻¹; kcat/Km [22]: 1.2e+07 ± 1e+06 M⁻¹ s⁻¹; Km [23]: 29 ± 1 µM; kcat [23]: 14 ± 1 s⁻¹; kcat/Km [23]: 470000 ± 30000 M⁻¹ s⁻¹
